In patent US4308267A, “7-[2-Alkoxyimino-2-(amino-thiazole)acetami do]-3-[1-(sulfaminoalkly)tetrazolthiomethyl]cephalosporins” (SmithKline Corporation, priority 1980, dated 1981):
Converted amounts (≈) assume the structure as drawn. Structures can show the parent of a compound that is named as a salt.

Columns and labels:
E. coli 804 = test: minimum inhibitory concentration, in vitro screen (Table I, strain 6); assay type: cell-based; details: Escherichia coli; E. coli 804, lactamase producer
Source text: (§1) The compounds of this invention are useful as broad spectrum antibacterial agents against both Gram-positive and Gram-negative organisms. […] Data for 7-[syn-2-methoxyimino-2-(2-amino-4-thiazolyl)acetamido]cephalosporanic acid (cefatoxime) are also included for comparison.

P. mirabilis PM-444 = test: minimum inhibitory concentration, in vitro screen (Table I, strain 10); assay type: cell-based; details: Proteus mirabilis, PM444
Source text: as §1

[1] = system: Serratia marcescens ATCC 13880; test: minimum inhibitory concentration, in vitro screen (Table I, strain 12); assay type: cell-based; details: ATCC13880
Source text: as §1

Staph. aureus 674 = test: minimum inhibitory concentration, in vitro screen (Table I, strain 3); assay type: cell-based; details: Staphylococcus aureus
Source text: as §1

Proteus morgani 179 = test: minimum inhibitory concentration, in vitro screen (Table I, strain 13); assay type: cell-based
Source text: as §1

[2] = system: Enterobacter aerogenes ATCC 13048; test: minimum inhibitory concentration, in vitro screen (Table I, strain 14); assay type: cell-based; details: Klebsiella aerogenes, ATCC13048
Source text: as §1

S. aureus HH 127 = test: standard in vivo antibacterial test in mice, ED50 (Table 2); details: Staphylococcus aureus
Source text: (§2) Table 2 sets forth ED50 's for Compound A, cefamandole and cefatoxime.

E. coli 12140 = test: as above; details: Escherichia coli
Source text: as §2

in vitro = in vitro ADME; details: human serum proteins; read-out: Binding to Human Serum Proteins (converted)
Strep. faecalis HH 34358 = test: minimum inhibitory concentration, in vitro screen (Table I, strain 4); assay type: cell-based; details: Enterococcus faecalis, HH34358
Source text: as §1

Pseudo. aeruginosa 647 = test: minimum inhibitory concentration, in vitro screen (Table I, strain 16); assay type: cell-based; details: Pseudomonas aeruginosa
Source text: as §1

Staph. aureus HH 127 = test: minimum inhibitory concentration, in vitro screen (Table I, strain 1); assay type: cell-based; details: Staphylococcus aureus, HH127; Staph. aureus HH 127, lactamase producer
Source text: as §1

[3] = system: Kleb. pneumoniae SK&F 4200; test: minimum inhibitory concentration, in vitro screen (Table I, strain 7); assay type: cell-based; details: Klebsiella pneumoniae
Source text: as §1

Pseudo. aeruginosa HH 63 = test: minimum inhibitory concentration, in vitro screen (Table I, strain 11); assay type: cell-based; details: Pseudomonas aeruginosa, HH63
Source text: as §1

Enterobacter cloacae 921 = test: minimum inhibitory concentration, in vitro screen (Table I, strain 15); assay type: cell-based
Source text: as §1

Kleb. pneumoniae 982 = test: minimum inhibitory concentration, in vitro screen (Table I, strain 9); assay type: cell-based; details: Klebsiella pneumoniae; Kleb. pneumoniae 982, lactamase producer
Source text: as §1

Staph. aureus 671 = test: minimum inhibitory concentration, in vitro screen (Table I, strain 2); assay type: cell-based; details: Staphylococcus aureus; Staph. aureus 671, lactamase producer
Source text: as §1

[4] = pharmacokinetics in mouse (Table 3); assay type: in vivo; details: for half-life: in vivo; for half-life / concentration at 2 h / Cmax / dose excreted: mouse, 20 mg/kg; for concentration at 2 h / Cmax: serum; for concentration at 2 h: read-out: Serum Level at 2 hrs.; for Cmax: read-out: Peak Serum Level; for dose excreted: urine, read-out: Urinary Recovery
E. coli SK&F 12140 = test: minimum inhibitory concentration, in vitro screen (Table I, strain 5); assay type: cell-based; details: Escherichia coli
Source text: as §1

[5] = system: Kleb. pneumoniae SK&F 1200; test: minimum inhibitory concentration, in vitro screen (Table I, strain 8); assay type: cell-based; details: Klebsiella pneumoniae
Source text: as §1

bacterial infections = test: standard in vivo tests in mice (general statement)
Source text: as §2

[6] = system: Gram-negative bacteria including those which are β-lactamase producers; test: standard in vitro screens (general statement); assay type: cell-based; details: especially against Gram-negative bacteria including β-lactamase producers
Source text: as §1

SMILES | MIC (E. coli 804) [µg/mL] | MIC (P. mirabilis PM-444) [µg/mL] | MIC [1] [µg/mL] | MIC (Staph. aureus 674) [µg/mL] | MIC (Proteus morgani 179) [µg/mL] | MIC [2] [µg/mL] | fraction unbound (in vitro) | MIC (Strep. faecalis HH 34358) [µg/mL] | MIC (Pseudo. aeruginosa 647) [µg/mL] | MIC (Staph. aureus HH 127) [µg/mL] | MIC [3] [µg/mL] | MIC (Pseudo. aeruginosa HH 63) [µg/mL] | MIC (Enterobacter cloacae 921) [µg/mL] | MIC (Kleb. pneumoniae 982) [µg/mL] | MIC (Staph. aureus 671) [µg/mL] | half-life [4] [min] | concentration at 2 h [4] [ng/mL] | Cmax [4] [ng/mL] | dose excreted [4] [%] | MIC (E. coli SK&F 12140) [µg/mL] | further results
Cn1nnnc1SCC1=C(C(=O)O)N2C(=O)[C@@H](NC(=O)[C@H](O)c3ccccc3)[C@H]2SC1 [Cefamandole] | > 100 | 0.4 (≈ 0.865 µM) | 12.5 (≈ 27 µM) | ≤ 0.1 | 1.6 (≈ 3.46 µM) | 1.6 (≈ 3.46 µM) | 0.39 | 25 (≈ 54.1 µM) | > 100 | 1.6 (≈ 3.46 µM) | 1.6 (≈ 3.46 µM) | > 100 | 3.1 (≈ 6.7 µM) | > 100 | 6.3 (≈ 13.6 µM) | 12 | 1000 | 34000 | 45 | 0.8 (≈ 1.73 µM) | ED50 (S. aureus HH 127; HH127, * representative value): 2.2 mg/kg; ED50 (E. coli 12140; * representative value): 0.9 mg/kg; MIC [5]: 0.4 µg/mL (≈ 0.865 µM)
CO/N=C(\C(=O)N[C@@H]1C(=O)N2C(C(=O)O)=C(COC(C)=O)CS[C@H]12)c1csc(N)n1 [Cefatoxime, 7-[syn-2-methoxyimino-2-(2-amino-4-thiazolyl)acetamido]cephalosporanic acid] | 0.2 (≈ 0.439 µM) | ≤ 0.1 | ≤ 0.1 | 0.8 (≈ 1.76 µM) | ≤ 0.1 | ≤ 0.1 | 0.61 | > 100 | 3.1 (≈ 6.81 µM) | 1.6 (≈ 3.51 µM) | ≤ 0.1 | 6.3 (≈ 13.8 µM) | ≤ 0.1 | 0.2 (≈ 0.439 µM) | 0.4 (≈ 0.878 µM) | 27 | < 1000 | 25000 | 13 | ≤ 0.1 | ED50 (S. aureus HH 127; HH127): 10.5 mg/kg; ED50 (E. coli 12140): < 0.2 mg/kg; MIC [5]: ≤ 0.1 µg/mL
CO/N=C(\C(=O)N[C@@H]1C(=O)N2C(C(=O)O)=C(CSc3nnnn3CCNS(=O)(=O)O)CS[C@H]12)c1csc(N)n1 [Compound A, 7-[syn-2-methoxyimino-2-(2-amino-4-thiazolyl)acetamido]-3-[1-(2-sulfaminoethyl)tetrazo-5-ylthiomethyl]-3-cephem-4-carboxylic acid disodium salt] | 0.4 | ≤ 0.1 | ≤ 0.1 | 6.3 | ≤ 0.1 | 0.2 | 0.3 | > 100 | 6.3 | 6.3 | ≤ 0.1 | 12.5 | 0.2 | 1.6 | 3.1 | 114 | 52000 | 78000 | 24 | ≤ 0.1 | ED50 (S. aureus HH 127; HH127): 21 mg/kg; ED50 (E. coli 12140): 0.4 mg/kg; antibacterial activity in standard in vivo tests (bacterial infections): high antibacterial activity; peak serum levels, serum levels at two hours and half-life ([4]; compared to cefatoxime and cefamandole): better for Compound A compared to cefatoxime and cefamandole; pharmacokinetic properties ([4]; general statement): unexpected improved pharmacokinetic properties; activity in standard in vitro screens [6]: high activity; MIC [5]: ≤ 0.1 µg/mL
